Measured values reported in article PMC7151106 (Pharmaceutics, 2020).
Read-outs that look alike come from different tables or passages of the source.

What was measured:
Format in all cases: cell-based
SGLT1 = molecular target: T1, SGLT1 (Homo sapiens, UniProt P13866); experiment: Inhibition of [14C]AMG uptake in CHO-SGLT1 cells; settings: 10 μM [14C]AMG uptake, 2 h, CHO-SGLT1 minus mock; mean ± SD, triplicate
T1 construct: host or cells: CHO
T1 sequence (P13866 1-664): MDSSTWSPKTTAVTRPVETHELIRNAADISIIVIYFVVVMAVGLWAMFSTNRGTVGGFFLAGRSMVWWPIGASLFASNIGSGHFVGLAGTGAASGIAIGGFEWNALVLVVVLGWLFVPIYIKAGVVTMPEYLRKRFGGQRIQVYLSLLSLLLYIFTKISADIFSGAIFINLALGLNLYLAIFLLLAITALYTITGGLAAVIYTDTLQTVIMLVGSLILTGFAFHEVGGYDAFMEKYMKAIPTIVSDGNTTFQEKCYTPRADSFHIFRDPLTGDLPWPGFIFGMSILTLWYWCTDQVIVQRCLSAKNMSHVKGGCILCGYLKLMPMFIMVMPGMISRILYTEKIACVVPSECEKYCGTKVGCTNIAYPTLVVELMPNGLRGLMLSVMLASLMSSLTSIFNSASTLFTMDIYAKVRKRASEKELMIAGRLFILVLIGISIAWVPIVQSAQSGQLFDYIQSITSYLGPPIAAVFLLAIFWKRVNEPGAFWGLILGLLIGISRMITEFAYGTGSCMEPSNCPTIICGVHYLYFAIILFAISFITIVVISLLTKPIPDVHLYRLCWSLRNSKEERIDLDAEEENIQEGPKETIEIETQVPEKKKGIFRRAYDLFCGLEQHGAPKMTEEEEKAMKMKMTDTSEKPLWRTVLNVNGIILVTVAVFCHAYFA
Protocol: CHO cells overexpressing SGLT1 and SGLT2 cells (CHO-SGLT1 and -SGLT2) and CHO-mock cells were characterized as previously described. Cells were maintained in RPMI1640 medium supplemented with 10% fetal bovine serum and 200 µg/mL G418 at 37 °C in 5% CO2 conditions. CHO-SGLT1 and -SGLT2 cells were seeded at a density of 1 × 10^5 cells/well in 96-well plates. After 24 h, the growth medium was discarded from the cells, and the cells were washed with pre-warmed Na^+-free buffer (10 mM HEPES, 5 mM Tris, 140 mM choline chloride, 2 mM KCl, 1 mM CaCl2, 1 mM MgCl2, pH7.4) and incubated for 1 h in Na^+-free buffer. After replacing Na^+-free buffer with Na^+ gradient buffer (10 mM HEPES, 5 mM Tris, 140 mM NaCl, 2 mM KCl, 1 mM CaCl2, 1 mM MgCl2, pH7.4) containing 10 µM [^14C]AMG, the uptake of [^14C]AMG into the CHO-mock cells and CHO-SGLT1 and -SLGT2 cells was measured for 0.5, 1, 1.5, 2, and 3 h. After a predetermined incubation time, cells were washed three times with 200 µL of ice-cold Na^+-free buffer immediately after placing the plates on ice. Then, the cells were lysed with 10% SDS, and the cell lysates were mixed with Optiphase cocktail solution. Thereafter, the radioactivity of the cell lysates was measured using a liquid scintillation counter.
After 2 h, cells were washed three times with 200 µL of ice-cold Na^+-free buffer and the cells were lysed with 10% SDS (40 µL), followed by adding Optiphase cocktail solution (200 µL). The radioactivity of the cell lysates was measured using a liquid scintillation counter. The SGLT1 or SGLT2-mediated uptake of [^14C]AMG was calculated by the subtraction of the uptake rates of [^14C]AMG into the mock cells from those of the CHO-SGLT1 and -SLGT2 cells. In the inhibition studies, the percentages of the transport rate of AMG with or without SGLT2 inhibitors were calculated and the data were fitted to an inhibitory effect model. The IC50 (the concentration of the inhibitor to show half-maximal inhibition) values were calculated using Sigma Plot ver.10.0 (Systat Software, Inc.; San Jose, CA, USA).

SGLT2 [1] = molecular target: T2, SGLT2 (Homo sapiens, UniProt P31639); experiment: Time dependency of SGLT2 inhibition (preincubation) in CHO-SGLT2 cells; settings: for IC50: 10 μM [14C]AMG, 2 h, CHO-SGLT2; for Time dependency of SGLT2 inhibition: pretreatment 0, 1, 2 h
T2 construct: host or cells: CHO
T2 sequence (P31639 1-672): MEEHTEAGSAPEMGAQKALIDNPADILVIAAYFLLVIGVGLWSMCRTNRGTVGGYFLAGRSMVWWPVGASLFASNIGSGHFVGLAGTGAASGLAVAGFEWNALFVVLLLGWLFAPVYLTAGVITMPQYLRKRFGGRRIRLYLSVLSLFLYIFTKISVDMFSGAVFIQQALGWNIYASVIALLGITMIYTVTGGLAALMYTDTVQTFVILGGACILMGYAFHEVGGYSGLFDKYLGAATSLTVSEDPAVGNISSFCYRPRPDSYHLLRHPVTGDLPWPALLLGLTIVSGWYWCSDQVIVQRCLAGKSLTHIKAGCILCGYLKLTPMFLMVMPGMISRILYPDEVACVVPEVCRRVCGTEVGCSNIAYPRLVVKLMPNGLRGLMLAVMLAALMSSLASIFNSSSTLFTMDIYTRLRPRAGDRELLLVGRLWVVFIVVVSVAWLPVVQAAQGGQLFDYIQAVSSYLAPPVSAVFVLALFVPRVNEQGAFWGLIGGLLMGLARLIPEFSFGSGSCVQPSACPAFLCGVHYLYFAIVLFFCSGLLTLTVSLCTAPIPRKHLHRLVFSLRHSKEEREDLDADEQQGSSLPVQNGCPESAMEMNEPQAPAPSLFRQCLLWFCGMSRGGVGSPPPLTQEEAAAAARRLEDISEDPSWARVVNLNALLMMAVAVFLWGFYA
Protocol: After 2 h of incubation, the radioactivity of the cell lysate was measured following the same sample preparation method described above.

SGLT2 [2] = molecular target: T2, SGLT2; experiment: Mode of inhibition on SGLT2 (Dixon plots) in CHO-SGLT2 cells; settings: 1, 2.5, 5, 50 μM [14C]AMG
Protocol: The radioactivity of the cell lysate was measured following the same sample preparation method described above.

SGLT2 [3] = molecular target: T2, SGLT2; experiment: Recovery of SGLT2 activity after washout following 24 h exposure in CHO-SGLT2 cells
Protocol: After 24 h, the RPMI1640 medium was replaced with pre-warmed fresh RPMI1640 medium and incubated for 1, 2, 3, 5, and 6 h, and proceeded another pre-incubation with Na^+-free buffer for 1 h. Then, after replacing Na^+-free buffer with Na^+ gradient buffer containing 10 µM [^14C]AMG, the uptake of [^14C]AMG into the CHO-SGLT2 cells was measured for 2 h. After 2 h of incubation, the radioactivity of the cell lysate was measured following the same sample preparation method described above.

[4] = without preincubation, read-out: IC50 (0 h)

Structure (SMILES)	IC50 (SGLT1)	IC50 (SGLT2 [1]; IC50 (1 h), preincubation 1 h)	IC50 (SGLT2 [1]; IC50 (2 h), preincubation 2 h)	Time dependency of SGLT2 inhibition (SGLT2 [1])	IC50 (SGLT2 [1]; [4])	Mode of inhibition on SGLT2 (SGLT2 [2])	Time after drug removal at which SGLT2 activity had not recovered (SGLT2 [3]; 200 nM)	Time after drug removal to recovery of SGLT2 activity to the control level (SGLT2 [3]; 0.2–200 nM)
OC[C@H]1O[C@@H](c2cc(Cc3ccc(C4CC4)cc3)c(Cl)c3c2CCO3)[C@H](O)[C@@H](O)[C@@H]1O [DWP16001]	549 ± 140 nM	0.7 nM	0.8 nM	time-independent	0.7 nM	reversible and competitive	8 h	–
OC[C@H]1O[C@@H](c2ccc(F)c(Cc3cc4ccccc4s3)c2)[C@H](O)[C@@H](O)[C@@H]1O [Ipragliflozin, ipragliflozin]	2330 ± 378 nM	11 nM	9.9 nM	time-independent	10.6 nM	reversible and competitive	–	4 h
